Measured values published in US11414387B2, “Oxoacridinyl acetic acid derivatives and methods of use” (Stingthera, Inc., priority 2017, dated 2022).

Assays:
[1] = target: hSTING-WT (Homo sapiens (Human), UniProt Q86WV6, H232R); experiment: Radiometric filtration binding competition assay, hSTING-WT
Protocol: A radiometric filtration binding competition assay was performed to quantify the binding affinity of compounds of the present application for the human or mouse STING protein, or associated HAQ human isoform. […] The resulting dose response was fit by non-linear regression to determine an IC50 value, from which a Ki value for each compound was extrapolated.
The resulting complexes were then filtered, dried, and scintillation fluid was added and the remaining radio signal was measured to determine the degree of compound ligand inhibition. This assay format was optimized for both the WT and HAQ isoforms of the human protein and the mouse orthologue protein.
Probe Concentration: Minimum concentration that achieved max assay window • g. Assay Format: Scintillation Proximity Bead or Filtration Binding Plate • h. […] Assay incubation times for successive incubation steps
WT-hSWAT: WT_FBA_HIS-SUMO-hSWAT IC50 (μM) (“WT”=Wild-type); HAQ-hSWAT: HAQ_FBA_HIS-SUMO-hSWAT IC50 (μM) (“HAQ”=human HAQ allele of STING protein); and WT-mSWAT: MOUSE_FBA_HIS-SUMO-mnSWAT IC50 (μM) which is the mouse isoform of STING protein.

[2] = target: hSTING-R232 (Homo sapiens (Human), UniProt Q86WV6, H232R); experiment: STING differential scanning fluorimetry (DSF) assay, WT human STING; details: WT (R232) human STING aa140-379, net shift in melting temperature
Sequence of hSTING-R232 (Q86WV6 140-379 H232R): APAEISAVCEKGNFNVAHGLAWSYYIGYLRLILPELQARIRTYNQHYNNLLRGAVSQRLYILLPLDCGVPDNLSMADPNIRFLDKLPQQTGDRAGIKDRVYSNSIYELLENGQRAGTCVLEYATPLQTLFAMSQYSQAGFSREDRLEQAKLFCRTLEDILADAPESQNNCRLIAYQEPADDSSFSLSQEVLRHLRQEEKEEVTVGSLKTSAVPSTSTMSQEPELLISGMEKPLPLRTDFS

[3] = target: STING protein (Homo sapiens (Human), UniProt Q86WV6, H232R); experiment: Cell based reporter assay of IRF activation (IRF-luciferase), THP1-dual-KI R232; details: read-out: THP1-dual-KI R232_IRF(Luciferase)_Activity Maximum measured (%)
Sequence of STING protein (Q86WV6 whole entry H232R): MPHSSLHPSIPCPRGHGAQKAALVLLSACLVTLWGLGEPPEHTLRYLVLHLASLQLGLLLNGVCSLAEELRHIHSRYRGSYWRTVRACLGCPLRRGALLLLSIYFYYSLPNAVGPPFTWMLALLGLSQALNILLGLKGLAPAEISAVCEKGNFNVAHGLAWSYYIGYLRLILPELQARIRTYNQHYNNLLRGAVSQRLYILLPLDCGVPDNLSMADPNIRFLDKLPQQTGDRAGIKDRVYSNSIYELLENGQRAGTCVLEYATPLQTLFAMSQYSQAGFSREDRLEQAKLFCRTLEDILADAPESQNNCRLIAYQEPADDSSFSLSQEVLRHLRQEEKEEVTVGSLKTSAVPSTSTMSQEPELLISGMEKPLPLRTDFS

Sequence of hSTING-WT (Q86WV6 140-379 H232R): as the sequence (Q86WV6 140-379 H232R) above

| SMILES | IC50 [1] [µM] | WT_DSF_hSWAT Tm Shift (° C.) [2] | Emax [3] [%] |
| --- | --- | --- | --- |
| C[C@@H](C(=O)O)n1c2ccccc2c(=O)c2ccc(Cl)c(Cl)c21 [Compound 100] | > 300 | A (“A” < 0° C.) | – |
| C[C@H](C(=O)O)n1c2ccccc2c(=O)c2ccc(Cl)c(Cl)c21 [Compound 101] | > 300 | A (“A” < 0° C.) | – |
| Cc1ccc2c(=O)c3ccc(Cl)c(Cl)c3n(CC(=O)O)c2c1C [Compound 134] | 20 to 100 | A (“A” < 0° C.) | < 5 |
| CN(C)c1c(Cl)ccc2c(=O)c3ccccc3n(CC(=O)O)c12 [Compound 136] | 20 to 100 | D (“D” > 7° C.) | – |
| CSc1ccc2c(=O)c3ccc(Cl)c(Cl)c3n(CC(=O)O)c2c1 [Compound 137] | 100 to 300 | C (“C” = 2-7° C,) | 25 to 50 |
| CC(C)Sc1ccc2c(=O)c3ccc(Cl)c(Cl)c3n(CC(=O)O)c2c1 [Compound 149] | 100 to 300 | C (“C” = 2-7° C,) | < 5 |
| O=C(O)Cn1c2cc(C(F)F)ccc2c(=O)c2ccc(Cl)c(Cl)c21 [Compound 166] | > 300 | B (“B” = 0-2° C.) | – |
| O=C(O)Cn1c2cc(C(O)(C(F)(F)F)C(F)(F)F)ccc2c(=O)c2ccc(Cl)c(Cl)c21 [Compound 167] | > 300 | A (“A” < 0° C.) | – |
| CC(C)(O)c1ccc2c(=O)c3ccc(Cl)c(Cl)c3n(CC(=O)O)c2c1 [Compound 168] | 100 to 300 | A (“A” < 0° C.) | – |
| O=C(O)Cn1c2cc(-c3cc[nH]n3)ccc2c(=O)c2ccc(Cl)c(Cl)c21 [Compound 182] | 100 to 300 | C (“C” = 2-7° C,) | – |
| Cn1ccc(-c2ccc3c(=O)c4ccc(Cl)c(Cl)c4n(CC(=O)O)c3c2)n1 [Compound 184] | > 300 | C (“C” = 2-7° C,) | – |
| O=C(O)Cn1c2cc(-c3ccco3)ccc2c(=O)c2ccc(Cl)c(Cl)c21 [Compound 186] | 20 to 100 | C (“C” = 2-7° C,) | 25 to 50 |
| O=C(O)Cn1c2cc(-c3nccs3)ccc2c(=O)c2ccc(Cl)c(Cl)c21 [Compound 187] | 100 to 300 | B (“B” = 0-2° C.) | – |
| Cn1ccnc1-c1ccc2c(=O)c3ccc(Cl)c(Cl)c3n(CC(=O)O)c2c1 [Compound 188] | > 300 | A (“A” < 0° C.) | – |
| O=C(O)Cn1c2cc(-c3cccnc3)ccc2c(=O)c2ccc(Cl)c(Cl)c21 [Compound 190] | > 300 | C (“C” = 2-7° C,) | – |
| CC(O)c1ccc2c(=O)c3ccc(Cl)c(Cl)c3n(CC(=O)O)c2c1 (centres unmarked) [Compound 191] | > 300 | B (“B” = 0-2° C.) | – |
| CC(C)c1ccc2c(=O)c3ccc(I)c(Cl)c3n(CC(=O)O)c2c1 [Compound 195] | > 300 | C (“C” = 2-7° C,) | – |
| CSc1ccc2c(=O)c3ccc(Cl)c(Br)c3n(CC(=O)O)c2c1 [Compound 196] | 20 to 100 | D (“D” > 7° C.) | – |
| O=C(O)Cn1c2cc(N3CCCC3)ccc2c(=O)c2ccc(Cl)c(Br)c21 [Compound 201] | 100 to 300 | C (“C” = 2-7° C,) | 5 to 25 |
| C[C@H]1CCCN1c1ccc2c(=O)c3ccc(Cl)c(Br)c3n(CC(=O)O)c2c1 [Compound 202] | 20 to 100 | C (“C” = 2-7° C,) | 5 to 25 |
| C[C@@H]1CCCN1c1ccc2c(=O)c3ccc(Cl)c(Br)c3n(CC(=O)O)c2c1 [Compound 203] | 20 to 100 | C (“C” = 2-7° C,) | > 50 |
| O=C(O)CCCn1c2ccccc2c(=O)c2ccc(Cl)c(Cl)c21 [Compound 205] | > 300 | A (“A” < 0° C.) | – |
| O=C(O)Cn1c2ccccc2c2ccc(Cl)c(Cl)c21 [Compound 209] | > 300 | A (“A” < 0° C.) | – |
| CC(C)c1ccc2c3ccc(Cl)c(Cl)c3n(CC(=O)O)c2c1 [Compound 210] | 20 to 100 | A (“A” < 0° C.) | < 5 |

| SMILES | IC50 [1] [µM] | WT_DSF_hSWAT Tm Shift (° C.) [2] | Emax [3] [%] |
| --- | --- | --- | --- |
| O=C(O)Cn1c2cc(C3CCC(O)CC3)ccc2c(=O)c2ccc(Cl)c(Cl)c21 (centres unmarked) [Compound 214] | 20 to 100 | D (“D” > 7° C.) | – |
| CCOc1c(Cl)ccc2c(=O)c3ccc(C(C)(C)C)cc3n(CC(=O)O)c12 [Compound 224] | 20 to 100 | – | – |
| COc1c(Cl)ccc2c(=O)c3ccc(C4CCCNC4)cc3n(CC(=O)O)c12 (centres unmarked) [Compound 227] | > 300 | C (“C” = 2-7° C,) | < 5 |
| COc1c(Cl)ccc2c(=O)c3ccc(SC4CCCCC4)cc3n(CC(=O)O)c12 [Compound 233] | < 20 | D (“D” > 7° C.) | > 50 |
| COc1c(Cl)ccc2c(=O)c3ccc(Nc4ccc(O)cc4)cc3n(CC(=O)O)c12 [Compound 236] | < 20 | D (“D” > 7° C.) | – |
| COc1c(Cl)ccc2c(=O)c3ccc(-c4cccc(C)c4)cc3n(CC(=O)O)c12 [Compound 238] | < 20 | D (“D” > 7° C.) | > 50 |
| CC(C)c1ccc2c(c1)c1ccc(Cl)c(Cl)c1n2CC(=O)O [Compound 240] | 20 to 100 | – | – |
| COc1c(Cl)ccc2c(=O)c3ccc(C(C)C)cc3n(CC(=O)O)c12 [Compound 245] | 20 to 100 | D (“D” > 7° C.) | – |
| CC(C)Oc1c(Cl)ccc2c(=O)c3ccccc3n(CC(=O)O)c12 [Compound 246] | 100 to 300 | C (“C” = 2-7° C,) | – |
| O=C(O)Cn1c2ccccc2c(=O)c2ccc(Cl)c(OC3CCC3)c21 [Compound 247] | 100 to 300 | A (“A” < 0° C.) | – |
| COc1c(Cl)ccc2c(=O)c3cc(F)c(C(C)C)cc3n(CC(=O)O)c12 [Compound 248] | > 300 | B (“B” = 0-2° C.) | – |
| COc1c(Cl)ccc2c(=O)c3ccc(S(C)(=O)=O)cc3n(CC(=O)O)c12 [Compound 249] | > 300 | B (“B” = 0-2° C.) | – |
| COc1c(Cl)ccc2c(=O)c3ccc(C4=CCCOC4)cc3n(CC(=O)O)c12 [Compound 252] | 20 to 100 | D (“D” > 7° C.) | – |
| COc1c(Cl)ccc2c(=O)c3ccc(C4=CCOCC4)cc3n(CC(=O)O)c12 [Compound 254] | 20 to 100 | D (“D” > 7° C.) | > 50 |
| COc1c(Cl)ccc2c(=O)c3ccc(C4CCOCC4)cc3n(CC(=O)O)c12 [Compound 255] | 20 to 100 | C (“C” = 2-7° C,) | – |
| O=C(O)Cn1c2cc(Nc3cnc(Cl)cn3)ccc2c(=O)c2ccc(Cl)c(Cl)c21 [Compound 258] | 20 to 100 | D (“D” > 7° C.) | < 5 |
| CSc1c(Cl)ccc2c(=O)c3ccc(Nc4ccc(F)cc4)cc3n(CC(=O)O)c12 [Compound 259] | < 20 | D (“D” > 7° C.) | – |
| O=C(O)Cn1c2cc(C3CCC(O)CC3)ccc2c(=O)c2ccc(Cl)c(Cl)c21 (centres unmarked) [Compound 264] | – | C (“C” = 2-7° C,) | 5 to 25 |
| O=C(O)Cn1c2cc([C@H]3CC[C@H](O)CC3)ccc2c(=O)c2ccc(Cl)c(Cl)c21 [Compound 264] | < 20 | – | – |
| COc1ccc2c(=O)c3ccccc3n(CC(=O)O)c2c1OC [Compound 265] | > 300 | B (“B” = 0-2° C.) | < 5 |
| COc1c(Cl)ccc2c(=O)c3ccc(-c4ccoc4)cc3n(CC(=O)O)c12 [Compound 277] | < 20 | D (“D” > 7° C.) | > 50 |
| COc1c(Cl)ccc2c(=O)c3ccc(-c4ccncc4)cc3n(CC(=O)O)c12 [Compound 278] | 20 to 100 | D (“D” > 7° C.) | > 50 |
| COc1c(Cl)ccc2c(=O)c3ccc(C)cc3n(CC(=O)O)c12 [Compound 280] | 20 to 100 | D (“D” > 7° C.) | > 50 |
| O=C(Cn1c2ccccc2c(=O)c2ccc(Cl)c(Cl)c21)NO [Compound 353] | 100 to 300 | A (“A” < 0° C.) | – |
